Reference: ChEMBL document CHEMBL4385604, “Identification of Pyrrolo[2,3- d]pyrimidine-Based Derivatives as Potent and Orally Effective Fms-like Tyrosine Receptor Kinase 3 (FLT3) Inhibitors for Treating Acute Myelogenous Leukemia” (J Med Chem, 2019)
Calls of active or inactive are those of the source. The calls are words filed in the database; no cut-off is given here.

How the values were obtained:
MOLM-13 [1] = assay: Induction of apoptosis in human MOLM13 cells assessed as viable cells at 1 uM after 48 hrs by Annexin V/propidium iodide staining based flow cytometry (reference value: 88.2%); type: functional; conditions: MOLM-13, 48 h, read-out: Activity
MOLM-13 [2] = assay: Induction of apoptosis in human MOLM13 cells assessed as early apoptotic cells at 100 nM after 48 hrs by Annexin V/propidium iodide staining based flow cytometry (reference value: 5.97%); type: functional
[3] = Toxicity in NOD/SCID mouse xenografted with human MV4-11 cells at 10 mg/kg, po qd for 18 days; type: organism-based; conditions: in vivo, 432 h
MV4-11 [4] = assay: Cell cycle arrest in human MV4-11 cells assessed as accumulation at G0/G1 phase at 10 nM after 24 hrs by propidium iodide staining-based flow cytometric analysis (reference value: 48.76%); type: functional
MOLM-13 [5] = assay: Cell cycle arrest in human MOLM13 cells assessed as accumulation at S phase at 30 nM after 24 hrs by propidium iodide staining-based flow cytometric analysis (reference value: 41.95%); type: functional
MV4-11 [6] = assay: Induction of apoptosis in human MV4-11 cells assessed as late apoptotic cells at 1 nM after 48 hrs by Annexin V/propidium iodide staining based flow cytometry (reference value: 2.83%); type: functional
MV4-11 [7] = assay: Induction of apoptosis in human MV4-11 cells assessed as early apoptotic cells at 10 uM after 48 hrs by Annexin V/propidium iodide staining based flow cytometry (reference value: 2.76%); type: functional
MV4-11 [8] = assay: Cell cycle arrest in human MV4-11 cells assessed as accumulation at G2/M phase at 10 nM after 24 hrs by propidium iodide staining-based flow cytometric analysis (reference value: 21.12%); type: functional
MV4-11 [9] = assay: Induction of apoptosis in human MV4-11 cells assessed as viable cells at 100 nM after 48 hrs by Annexin V/propidium iodide staining based flow cytometry (reference value: 94.4%); type: functional; conditions: MV4-11, 48 h, read-out: Activity
MV4-11 [10] = assay: Cell cycle arrest in human MV4-11 cells assessed as accumulation at S phase at 30 nM after 24 hrs by propidium iodide staining-based flow cytometric analysis (reference value: 30.12%); type: functional
BaF3 [11] = assay: cells; conditions: Mus musculus, BaF3, 72 h
Description: Antiproliferative activity against mouse BAF3 cells harboring FLT3-ITD-F691L mutant measured after 72 hrs by MTT assay

[12] = Elimination half-life in Sprague-Dawley rat at 5 mg/kg, po by LC-MS/MS analysis; type: ADME, organism-based; conditions: in vivo, read-out: beta t1/2 (converted)
BaF3 [13] = assay: cells; conditions: Mus musculus, BaF3, 72 h; remark: listed apart in the source
Description: Antiproliferative activity against mouse BAF3 cells harboring FLT3-ITD-D835V mutant measured after 72 hrs by MTT assay

MV4-11 [14] = assay: Cell cycle arrest in human MV4-11 cells assessed as accumulation at G2/M phase at 3 nM after 24 hrs by propidium iodide staining-based flow cytometric analysis (reference value: 21.12%); type: functional
MOLM-13 [15] = assay: Cell cycle arrest in human MOLM13 cells assessed as accumulation at S phase at 10 nM after 24 hrs by propidium iodide staining-based flow cytometric analysis (reference value: 41.95%); type: functional
MV4-11 [16] = assay: Induction of apoptosis in human MV4-11 cells assessed as viable cells at 1 nM after 48 hrs by Annexin V/propidium iodide staining based flow cytometry (reference value: 94.4%); type: functional; conditions: MV4-11, 48 h, read-out: Activity
MV4-11 [17] = assay: Cell cycle arrest in human MV4-11 cells assessed as accumulation at G0/G1 phase at 1 nM after 24 hrs by propidium iodide staining-based flow cytometric analysis (reference value: 48.76%); type: functional
MV4-11 [18] = assay: Cell cycle arrest in human MV4-11 cells assessed as accumulation at G2/M phase at 30 nM after 24 hrs by propidium iodide staining-based flow cytometric analysis (reference value: 21.12%); type: functional
[19] = biological target: Receptor-type tyrosine-protein kinase FLT3 (Homo sapiens, UniProt P36888, D835Y); assay: Binding affinity to human partial length FLT3 D835Y mutant (Q580 to Y969 residues) expressed in Escherichia coli after 1 hr by qPCR analysis
MV4-11 [20] = assay: Induction of apoptosis in human MV4-11 cells assessed as late apoptotic cells at 1 uM after 48 hrs by Annexin V/propidium iodide staining based flow cytometry (reference value: 2.83%); type: functional
MV4-11 [21] = assay: Induction of apoptosis in human MV4-11 cells assessed as necrotic cells at 1 uM after 48 hrs by Annexin V/propidium iodide staining based flow cytometry (reference value: 0.06%); type: functional
MV4-11 [22] = assay: Antitumour activity against human MV4-11 cells xenografted in NOD/SCID mouse assessed as tumour growth inhibition at 10 mg/kg, po qd for 18 days measured on day 24 by caliper method; type: functional, organism-based
MOLM-13 [23] = assay: Induction of apoptosis in human MOLM13 cells assessed as viable cells at 10 nM after 48 hrs by Annexin V/propidium iodide staining based flow cytometry (reference value: 88.2%); type: functional; conditions: MOLM-13, 48 h, read-out: Activity
MV4-11 [24] = assay: Antitumour activity against human MV4-11 cells xenografted in NOD/SCID mouse assessed as tumour growth inhibition at 10 mg/kg, po qd for 18 days measured every two days during compound dosing by caliper method relative to control; type: functional; conditions: MV4-11, po, read-out: TGI
MV4-11 [25] = assay: Induction of apoptosis in human MV4-11 cells assessed as viable cells at 1 uM after 48 hrs by Annexin V/propidium iodide staining based flow cytometry (reference value: 94.4%); type: functional; conditions: MV4-11, 48 h, read-out: Activity
MOLM-13 [26] = assay: Induction of apoptosis in human MOLM13 cells assessed as late apoptotic cells at 100 nM after 48 hrs by Annexin V/propidium iodide staining based flow cytometry (reference value: 5.52%); type: functional
Homo sapiens = species: Homo sapiens; assay: Inhibition of MAPK in human MOLM13 cells assessed as ratio of phosphorylated ERK to beta-actin level at 100 nM after 2 hrs by Western blot analysis relative to control; type: cell-based
MOLM-13 [27] = assay: Cell cycle arrest in human MOLM13 cells assessed as accumulation at G2/M phase at 3 nM after 24 hrs by propidium iodide staining-based flow cytometric analysis (reference value: 13.52%); type: functional
MOLM-13 [28] = assay: Cell cycle arrest in human MOLM13 cells assessed as accumulation at G0/G1 phase at 10 nM after 24 hrs by propidium iodide staining-based flow cytometric analysis (reference value: 44.53%); type: functional
MV4-11 [29] = assay: Induction of apoptosis in human MV4-11 cells assessed as late apoptotic cells at 100 nM after 48 hrs by Annexin V/propidium iodide staining based flow cytometry (reference value: 2.83%); type: functional

C=CCn1cc(-c2ccc(NC(=O)Nc3cc(C(C)(C)C)on3)cc2)c2c(N)ncnc21
viability at 1 µM (MOLM-13 [1]): 29%
Activity (MOLM-13 [2]): 15.5%
Activity [3]: Non-Toxic
Activity (MV4-11 [4]): 95.74%
Activity (MOLM-13 [5]): 2.84%
Activity (MV4-11 [6]): 4.62%
Activity (MV4-11 [7]): 13.4%
Activity (MV4-11 [8]): 2.2%
viability at 0.1 µM (MV4-11 [9]): 75.7%
Activity (MV4-11 [10]): 1.96%
IC50 (BaF3 [11]): 13 nM
half-life [12]: 2.06 h
IC50 (BaF3 [13]): 20.7 nM
Activity (MV4-11 [14]): 4.08%
Activity (MOLM-13 [15]): 3.01%
viability at 0.001 µM (MV4-11 [16]): 92.7%
Activity (MV4-11 [17]): 50.94%
Activity (MV4-11 [18]): 1.79%
Kd [19]: 7.78 nM
Activity (MV4-11 [20]): 24.8%
Activity (MV4-11 [21]): 0.32%
TGI (MV4-11 [22]): inactive
viability at 0.01 µM (MOLM-13 [23]): 66.1%
inhibition in vivo at 10 mg/kg (MV4-11 [24]): 100%
viability at 1 µM (MV4-11 [25]): 55%
Activity (MOLM-13 [26]): 21.5%
fold change (FC) (Homo sapiens): 0.12
Activity (MOLM-13 [27]): 4.55%
Activity (MOLM-13 [28]): 94.62%
Activity (MV4-11 [29]): 12.7%
